According to the NIST ThermoML archive (doi:10.1021/acs.jced.8b00966):
± gives the expanded uncertainty stated by the source.

Details: Liquid, Ebulliometric method (Recirculating still)

CC1(C)COC1 [3,3-dimethyloxetane]
vapor or sublimation pressure (352.8 K): 101.3 ± 3 kPa

CC(C)(CO)CCl [3-chloro-2,2-dimethyl-1-propanol]
vapor or sublimation pressure (439.15 K): 101.3 ± 3 kPa

CC1CCCCC1 [methylcyclohexane]
vapor or sublimation pressure (373.35 K): 101.3 ± 3 kPa
